Results from ChEMBL document CHEMBL1201862, “PubChem BioAssay data set” (2004).
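Method: 48-hour compound exposure of cells in 96-well plates, five concentrations, linear interpolation of endpoints. GI50 = concentration required for 50% inhibition of growth.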 Active and inactive are the calls of the source. No stated cut-off is given here; in the data, active = GI50 up to about 1.1 µM and inactive = higher.

How the values were obtained:
Experiment in all cases: NCI anticancer screen, dose series, 48 h
[1] = system: 786-0
[2] = system: A549
[3] = system: BT-549
[4] = system: CAKI-1
[5] = system: DU-145
[6] = system: HOP-92
[7] = system: HT-29
[8] = system: KM12
[9] = system: MOLT-4
[10] = system: SF-268
[11] = system: SK-MEL-28
[12] = system: SK-MEL-5
[13] = system: SN12C
[14] = system: SNB-19
[15] = system: SR
[16] = system: SW-620
[17] = system: T47D
[18] = system: UO-31
[19] = system: CCRF-CEM

In the case of `OCCCN=C1CCCCC1`, the GI50 [1] is reported as > 100 µM (inactive), the GI50 [2] is reported as > 100 µM (inactive) and the GI50 [3] is reported as > 100 µM (inactive). The GI50 [4] was > 100 µM (inactive), the GI50 [5] was > 100 µM (inactive) and the GI50 [6] was > 100 µM (inactive). For the same compound, the GI50 [7] was > 100 µM (inactive), the GI50 [8] was > 100 µM (inactive) and the GI50 [9] was > 100 µM (inactive). For the same compound, the GI50 [10] was > 100 µM (inactive), the GI50 [11] was > 100 µM (inactive) and the GI50 [12] was > 100 µM (inactive). For the same compound, the GI50 [13] was > 100 µM (inactive), the GI50 [14] was > 100 µM (inactive) and the GI50 [15] was > 100 µM (inactive). The GI50 [16] was > 100 µM (inactive), the GI50 [17] was > 100 µM (inactive) and the GI50 [18] was > 100 µM (inactive).

`Cc1ccc(N(C=O)c2c([N+](=O)[O-])cc([N+](=O)[O-])c3c2=[N+]([O-])CN=3)cc1` was tested, and the GI50 [1] was 27 µM (inactive), the GI50 [2] was > 100 µM (inactive) and the GI50 [3] was 18.7 µM (inactive). The GI50 [4] was 32.3 µM (inactive), the GI50 [5] was 27.2 µM (inactive) and the GI50 [6] was 16.2 µM (inactive). For the same compound, the GI50 [7] was 49 µM (inactive), the GI50 [8] was 43.8 µM (inactive) and the GI50 [9] was 23.9 µM (inactive). For the same compound, the GI50 [10] was 36 µM (inactive), the GI50 [11] was 49.4 µM (inactive) and the GI50 [12] was 13.5 µM (inactive). For the same compound, the GI50 [13] was 31.6 µM (inactive), the GI50 [14] was 66.8 µM (inactive) and the GI50 [15] was 24.9 µM (inactive). The GI50 [16] was 45.4 µM (inactive), the GI50 [17] was 17.5 µM (inactive) and the GI50 [18] was 29.3 µM (inactive).

`CCOc1ccc2c(c1)C(/C(C(Cl)=C(Cl)Cl)=[N+](/[O-])OC(=O)c1ccccc1)=N2` was tested, and the GI50 [1] was 72.4 µM (inactive), the GI50 [2] was 47 µM (inactive) and the GI50 [3] was 25.4 µM (inactive). The GI50 [4] was 32.6 µM (inactive), the GI50 [19] was 36.9 µM (inactive) and the GI50 [5] was 47.2 µM (inactive). The GI50 [6] was 38.1 µM (inactive), the GI50 [7] was 61.2 µM (inactive) and the GI50 [8] was 35.9 µM (inactive). For the same compound, the GI50 [9] was 39 µM (inactive), the GI50 [10] was 44.5 µM (inactive) and the GI50 [11] was > 100 µM (inactive). The GI50 [12] was 35.3 µM (inactive), the GI50 [13] was 78.9 µM (inactive) and the GI50 [14] was 93.1 µM (inactive). For the same compound, the GI50 [15] was 53.1 µM (inactive), the GI50 [16] was 65.8 µM (inactive) and the GI50 [17] was 26 µM (inactive). For the same compound, the GI50 [18] was > 100 µM (inactive).

In the case of `COc1cc(/C=N/n2c(-c3ccccc3)nn(C(C)=O)c2=O)cc(OC)c1OC`, the GI50 [1] is reported as 4.36 µM (inactive), the GI50 [2] is reported as 3.2 µM (inactive) and the GI50 [3] is reported as 8.55 µM (inactive). For the same compound, the GI50 [4] was 1.77 µM (inactive), the GI50 [19] was 2.23 µM (inactive) and the GI50 [5] was 4.46 µM (inactive). For the same compound, the GI50 [6] was > 33.9 µM (inactive), the GI50 [7] was 0.405 µM (active) and the GI50 [8] was 0.521 µM (active). The GI50 [9] was 0.714 µM (active), the GI50 [10] was 6.27 µM (inactive) and the GI50 [11] was 7.13 µM (inactive). The GI50 [12] was 0.675 µM (active), the GI50 [13] was 5.33 µM (inactive) and the GI50 [14] was 2.56 µM (inactive). For the same compound, the GI50 [15] was 0.0875 µM (active), the GI50 [16] was 0.836 µM (active) and the GI50 [17] was 8.02 µM (inactive). For the same compound, the GI50 [18] was 1.57 µM (inactive).

For `COC(=O)C(Cc1ccccc1)NP(=O)(O)OCC1OC(n2cc(Br)c(=O)[nH]c2=O)CC1O` (stereo not drawn), the GI50 [1] was > 100 µM (inactive), the GI50 [2] was > 100 µM (inactive) and the GI50 [3] was > 100 µM (inactive). The GI50 [19] was > 100 µM (inactive), the GI50 [5] was > 100 µM (inactive) and the GI50 [6] was > 100 µM (inactive). The GI50 [7] was > 100 µM (inactive), the GI50 [8] was > 100 µM (inactive) and the GI50 [9] was > 100 µM (inactive). For the same compound, the GI50 [10] was > 100 µM (inactive), the GI50 [11] was > 100 µM (inactive) and the GI50 [12] was > 100 µM (inactive). The GI50 [13] was > 100 µM (inactive), the GI50 [14] was > 100 µM (inactive) and the GI50 [15] was > 100 µM (inactive). For the same compound, the GI50 [16] was > 100 µM (inactive), the GI50 [17] was > 100 µM (inactive) and the GI50 [18] was > 100 µM (inactive).

`N#CC(C#N)=CNC(N)=S` was tested, and the GI50 [1] was > 100 µM (inactive), the GI50 [2] was > 100 µM (inactive) and the GI50 [3] was > 100 µM (inactive). The GI50 [4] was > 100 µM (inactive), the GI50 [19] was > 100 µM (inactive) and the GI50 [5] was > 100 µM (inactive). For the same compound, the GI50 [6] was > 100 µM (inactive), the GI50 [7] was > 100 µM (inactive) and the GI50 [8] was > 100 µM (inactive). The GI50 [9] was > 100 µM (inactive), the GI50 [10] was > 100 µM (inactive) and the GI50 [11] was > 100 µM (inactive). For the same compound, the GI50 [12] was > 100 µM (inactive), the GI50 [13] was > 100 µM (inactive) and the GI50 [14] was > 100 µM (inactive). The GI50 [15] was > 100 µM (inactive), the GI50 [16] was > 100 µM (inactive) and the GI50 [17] was > 100 µM (inactive).

With `COc1ccc(NC(=O)CC(=O)N2N=C(N3CCCCC3)CC2c2ccccc2)cc1` (stereo not drawn) the GI50 [1] was > 100 µM (inactive), the GI50 [2] was > 100 µM (inactive) and the GI50 [3] was > 100 µM (inactive). The GI50 [4] was > 100 µM (inactive), the GI50 [19] was > 100 µM (inactive) and the GI50 [5] was > 100 µM (inactive). For the same compound, the GI50 [6] was 99.5 µM (inactive), the GI50 [7] was > 100 µM (inactive) and the GI50 [8] was > 100 µM (inactive). For the same compound, the GI50 [9] was > 100 µM (inactive), the GI50 [10] was > 100 µM (inactive) and the GI50 [11] was > 100 µM (inactive). The GI50 [12] was > 100 µM (inactive), the GI50 [13] was > 100 µM (inactive) and the GI50 [14] was > 100 µM (inactive). For the same compound, the GI50 [15] was > 100 µM (inactive), the GI50 [16] was > 100 µM (inactive) and the GI50 [17] was > 100 µM (inactive). The GI50 [18] was > 100 µM (inactive).

For `Cn1c2ccccc2n2c3ncccc3c(=O)c(C#N)c12`, the GI50 [1] was 8.83 µM (inactive), the GI50 [2] was 5.2 µM (inactive) and the GI50 [3] was 16.5 µM (inactive). For the same compound, the GI50 [4] was 5.31 µM (inactive), the GI50 [19] was 4.07 µM (inactive) and the GI50 [5] was 6.5 µM (inactive). For the same compound, the GI50 [6] was 19.5 µM (inactive), the GI50 [7] was 5.51 µM (inactive) and the GI50 [8] was 14.6 µM (inactive). For the same compound, the GI50 [9] was 3.04 µM (inactive), the GI50 [10] was 18 µM (inactive) and the GI50 [11] was 44.2 µM (inactive). The GI50 [12] was 4.45 µM (inactive), the GI50 [13] was 8.49 µM (inactive) and the GI50 [14] was 8.28 µM (inactive). The GI50 [15] was 3.73 µM (inactive), the GI50 [16] was 7.85 µM (inactive) and the GI50 [17] was 15.2 µM (inactive). The GI50 [18] was 5.62 µM (inactive).
